From paper PMC7150891, “Mertansine Inhibits mRNA Expression and Enzyme Activities of Cytochrome P450s and Uridine 5′-Diphospho-Glucuronosyltransferases in Human Hepatocytes and Liver Microsomes” (Pharmaceutics, 2020) come the findings set out here.

Entries after “also recorded” stand apart in the source; their conditions may differ.

The target of one data set is T1, UGT1A4 (Homo sapiens, UniProt P22310).
T1 construct: ultrapooled human liver microsomes (0.2 mg/mL); from tissue; host or cells: human liver microsomes (ultrapooled)
T1 sequence (P22310 29-534): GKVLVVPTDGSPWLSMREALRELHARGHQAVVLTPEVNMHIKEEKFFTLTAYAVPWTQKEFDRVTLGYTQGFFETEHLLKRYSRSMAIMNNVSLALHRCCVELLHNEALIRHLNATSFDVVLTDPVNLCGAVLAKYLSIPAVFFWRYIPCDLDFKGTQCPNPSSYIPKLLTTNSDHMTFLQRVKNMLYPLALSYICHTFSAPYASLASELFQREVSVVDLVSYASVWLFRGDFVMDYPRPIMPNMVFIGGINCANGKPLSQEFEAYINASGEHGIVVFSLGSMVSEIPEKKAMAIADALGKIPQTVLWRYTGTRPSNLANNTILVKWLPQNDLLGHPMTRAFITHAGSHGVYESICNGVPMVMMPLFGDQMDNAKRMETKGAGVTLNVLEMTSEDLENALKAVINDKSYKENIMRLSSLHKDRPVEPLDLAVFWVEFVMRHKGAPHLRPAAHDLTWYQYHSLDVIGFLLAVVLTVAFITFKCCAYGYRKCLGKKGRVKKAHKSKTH
Nature of the data set: Inhibition of UGT1A4-catalyzed trifluoperazine N-β-D-glucuronidation in ultrapooled human liver microsomes. Format: in vitro ADME. How it is done: The inhibitory potential of mertansine on UGT1A1, UGT1A3, UGT1A4, UGT1A6, UGT1A9, and UGT2B7 activities was evaluated using liquid chromatography–tandem mass spectrometry (LC-MS/MS) with a cocktail of UGT substrates and ultrapooled human liver microsomes. Each incubation mixture was prepared to a final volume of 100 μL as follows: ultrapooled human liver microsomes (0.2 mg/mL), 5 mM UDPGA, 10 mM magnesium chloride, alamethicin (25 μg/mL), 50 mM Tris buffer (pH 7.4), various concentrations of mertansine in methanol (final concentrations of 0.01–50 μM), and the cocktail sets of UGT enzyme-specific substrates. Two cocktail sets were used: set A contained 0.5 μM SN-38 for UGT1A1, 2 μM chenodeoxycholic acid for UGT1A3, and 0.5 μM trifluoperazine for UGT1A4; and set B contained 1 μM N-acetylserotonin for UGT1A6, 0.2 μM mycophenolic acid for UGT1A9, and 1 μM naloxone for UGT2B7. The reactions were initiated by adding UDPGA and incubated in a shaking water bath for 60 min at 37 °C. […] Next, 50 μL of each supernatant of sets A and B was mixed, and aliquots (5 μL) were analyzed using LC-MS/MS. […]
The LC-MS/MS system was comprised of an Agilent 6495 triple quadrupole mass spectrometer coupled with an Agilent 1290 Infinity system (Agilent Technologies, Wilmington, DE, USA). […] The electrospray ionization (ESI) source settings in both positive and negative ion modes were as follows: gas temperature, 200 °C; gas flow, 14 L/min; nebulizer, 40 psi; sheath gas temperature, 380 °C; sheath gas flow, 11 L/min; capillary voltage, 4500 V; and nozzle voltage, 500 V. Each metabolite was quantified via selected reaction monitoring in the negative ion mode (chenodeoxycholic acid 24-acyl-β-glucuronide, m/z 567.1 to 391.2; mycophenolic acid β-D-glucuronide, m/z 495.0 to 319.0; propofol glucuronide (IS), m/z 353.0 to 177.0) and in the positive ion mode (SN-38 glucuronide, m/z 568.9 to 392.9; trifluoperazine N-β-D-glucuronide, m/z 583.9 to 407.9; N-acetylserotonin β-D-glucuronide, m/z 394.0 to 219.0; naloxone 3-β-D-glucuronide, m/z 503.9 to 309.9; meloxicam (IS), m/z 351.9 to 115.0). […]
(Liver microsomes are vesicles of endoplasmic reticulum, rich in cytochrome P450 enzymes.)

A further data set deals with CYP2C8 mRNA. Nature of the data set: CYP2C8 mRNA level in human hepatocytes after 48 h treatment (RT-PCR). The note with it: plated cryopreserved human hepatocytes, IC50, suppression of CYP2C8 mRNA expression, 1.25–2500 nM.

By Ki is commonly meant a measure of affinity in units of concentration, obtained from inhibition or displacement. A low value points to a stronger hold on the target. One may read the IC50 as the midpoint of a concentration-inhibition curve. As for `COc1cc2cc(c1Cl)N(C)C(=O)CC(OC(=O)C(C)N(C)C(=O)CCS)C1(C)OC1C(C)C1CC(O)(NC(=O)O1)C(OC)C=CC=C(C)C2` (stereo not shown) [mertansine, Mertansine], the “Inhibition Mode, UGT1A4” value on UGT1A4 (human liver microsomes, Dixon plot) is recorded as “competitively inhibited; also recorded: competitive inhibitor”. At UGT1A4 (human liver microsomes, trifluoperazine 0.2–2 µM), this compound yielded an inhibition constant (Ki) of 21200 nM. Further, at UGT1A4 (ultrapooled human liver microsomes, 0.5 µM trifluoperazine (cocktail)), the IC50 came to 23300 nM. Also, the concentration for half-maximal inhibition (IC50) at 48 h came out at 32.1 ± 14.9 nM with CYP2C8 mRNA (Mean ± SD of three human hepatocyte lots, 48 h); 48.7 nM in the data set with CYP2C8 mRNA (human hepatocytes Lot 319, 48 h); 20 nM in the data set on CYP2C8 mRNA (human hepatocytes Lot 321, 48 h); 27.5 nM in the data set on CYP2C8 mRNA (human hepatocytes Lot 361, 48 h).
